In ChEMBL document CHEMBL1201862, “PubChem BioAssay data set” (2004):
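Tested at 5 concentrations; 48 h exposure; 96-well plates; endpoints linearly interpolated, else capped at highest concentration. GI50 = concentration required for 50% inhibition of growth.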 The source made the active and inactive calls. No stated cut-off is given here; in the data, active = GI50 up to about 1.1 µM and inactive = higher.

Experiments:
Assay in all cases: DTP human tumour cell line panel, 48 h
MOLT-4 = test system: MOLT-4
HL-60 = test system: HL-60
NCI-H522 = test system: NCI-H522
COLO 205 = test system: COLO 205
786-0 = test system: 786-0
HCT-116 = test system: HCT-116
OVCAR-4 = test system: OVCAR-4
HOP-92 = test system: HOP-92
A498 = test system: A498
KM-20L2 = test system: KM-20L2
CAKI-1 = test system: CAKI-1
SF-295 = test system: SF-295
M19-MEL = test system: M19-MEL
Malme-3M = test system: Malme-3M
HT-29 = test system: HT-29
UACC-257 = test system: UACC-257
IGROV-1 = test system: IGROV-1

Structure (SMILES) | GI50 (MOLT-4) | GI50 (HL-60) | GI50 (NCI-H522) | GI50 (COLO 205) | GI50 (786-0) | GI50 (HCT-116) | GI50 (OVCAR-4) | GI50 (HOP-92) | GI50 (A498) | GI50 (KM-20L2) | GI50 (CAKI-1) | GI50 (SF-295) | GI50 (M19-MEL) | GI50 (Malme-3M) | GI50 (HT-29) | GI50 (UACC-257) | GI50 (IGROV-1)
O=C(/C=C\c1cccc2ccccc12)c1cccc2ccccc12 | 2.82 µM (inactive) | 3.64 µM (inactive) | 7.64 µM (inactive) | > 10 µM (inactive) | 4.4 µM (inactive) | 6.22 µM (inactive) | 6.37 µM (inactive) | > 10 µM (inactive) | 17.2 µM (inactive) | 9.55 µM (inactive) | 8.07 µM (inactive) | 14.7 µM (inactive) | 11.4 µM (inactive) | 15.9 µM (inactive) | 5.25 µM (inactive) | 16 µM (inactive) | 8.17 µM (inactive)
CN(C)c1nc(Oc2nc(N(C)C)nc(N(C)C)n2)nc(N(C)C)n1 | > 100 µM (inactive) | 52.5 µM (inactive) | 70.8 µM (inactive) | 22.1 µM (inactive) | > 100 µM (inactive) | > 100 µM (inactive) | > 100 µM (inactive) | > 100 µM (inactive) | > 100 µM (inactive) | > 100 µM (inactive) | > 100 µM (inactive) | > 100 µM (inactive) | 82.4 µM (inactive) | > 100 µM (inactive) | > 100 µM (inactive) | 56.5 µM (inactive) | > 100 µM (inactive)
CS(=O)(=O)Sc1ccc(Cl)cc1 | 3.53 µM (inactive) | 4.42 µM (inactive) | 3.24 µM (inactive) | 3.52 µM (inactive) | 6.32 µM (inactive) | 5.7 µM (inactive) | 13.7 µM (inactive) | 7.11 µM (inactive) | 2.38 µM (inactive) | 11.9 µM (inactive) | 10.7 µM (inactive) | 3.04 µM (inactive) | 6.82 µM (inactive) | 11.6 µM (inactive) | 9.75 µM (inactive) | 8.53 µM (inactive) | 2.85 µM (inactive)
N#CC(NNC(=O)c1ccccc1O)c1ccccc1 (configuration not stated) | 2.15 µM (inactive) | 1.8 µM (inactive) | 10.2 µM (inactive) | 33.7 µM (inactive) | 2.5 µM (inactive) | 0.577 µM (active) | 3.85 µM (inactive) | 0.695 µM (active) |  | 22 µM (inactive) | 2.91 µM (inactive) | 2.89 µM (inactive) | 1.32 µM (inactive) | 4.75 µM (inactive) | 26 µM (inactive) | 5.94 µM (inactive) | 1.13 µM (inactive)
O=C(/C=C/c1ccccc1)NC1C=Nc2ccc(Cl)cc2NC1=O (configuration not stated) | 4.54 µM (inactive) | 5.3 µM (inactive) | 9.64 µM (inactive) | 17.1 µM (inactive) | 23.2 µM (inactive) | 22.8 µM (inactive) | 20.5 µM (inactive) | 32.2 µM (inactive) | 21.7 µM (inactive) | 26 µM (inactive) | 22.6 µM (inactive) | 29 µM (inactive) | 23 µM (inactive) | 26.9 µM (inactive) | 30 µM (inactive) | 26.4 µM (inactive) | 15 µM (inactive)
O=C(O)C12C3CCCC1C2CC3 (configuration not stated) | > 100 µM (inactive) | > 100 µM (inactive) | > 100 µM (inactive) | > 100 µM (inactive) | > 100 µM (inactive) | > 100 µM (inactive) |  | > 100 µM (inactive) | > 100 µM (inactive) | > 100 µM (inactive) | > 100 µM (inactive) | > 100 µM (inactive) | > 100 µM (inactive) | > 100 µM (inactive) | > 100 µM (inactive) | > 100 µM (inactive) | > 100 µM (inactive)
O=P(Oc1ccc2ccccc2c1)(N1CC1)N1CC1 | 53.2 µM (inactive) | 26.4 µM (inactive) | 11 µM (inactive) | 55.6 µM (inactive) | 4.84 µM (inactive) | 53.3 µM (inactive) | 89.1 µM (inactive) | 24.5 µM (inactive) | 20.3 µM (inactive) | > 100 µM (inactive) |  | 10.9 µM (inactive) | 13.5 µM (inactive) | 10.7 µM (inactive) | > 100 µM (inactive) | 38.2 µM (inactive) | 83.4 µM (inactive)
O=C(Nc1ccccc1)N1C(c2ccccc2)=N[C@@H](c2ccccc2)[C@@H]1c1ccccc1 | 19.1 µM (inactive) | 19 µM (inactive) |  | 14.6 µM (inactive) | 17.6 µM (inactive) | 17.6 µM (inactive) | 17.6 µM (inactive) | 18.3 µM (inactive) | 18.3 µM (inactive) | 18.1 µM (inactive) | 21.5 µM (inactive) | 21.9 µM (inactive) | 19.5 µM (inactive) | 17.5 µM (inactive) | 16.6 µM (inactive) | 19 µM (inactive) | 22.4 µM (inactive)
